Source: publication PMC12530851, “Design, synthesis, and apoptotic antiproliferative activity of novel dihydropyrimidine-5-carbonitrile/1,2,4-oxadiazole hybrids as dual EGFR/VEGFR-2 inhibitors endowed with antioxidant activity” (RSC Advances, 2025)
Read-outs that look alike come from different tables or passages of the source.

Columns and labels:
BRAF^V600E = system: BRAF^V600E; set-up: method as in PMID 39281035; details: cited from earlier work
mutant EGFR (EGFR^T790M) = system: mutant EGFR (EGFR^T790M); set-up: method as in PMID 39281035; details: cited from earlier work
VEGFR-2 [1] = target: T1, VEGFR-2 (Homo sapiens, UniProt P35968); set-up: purchased Carna Biosciences, Inc; details: cited from earlier work
T1 sequence (P35968 20-1356): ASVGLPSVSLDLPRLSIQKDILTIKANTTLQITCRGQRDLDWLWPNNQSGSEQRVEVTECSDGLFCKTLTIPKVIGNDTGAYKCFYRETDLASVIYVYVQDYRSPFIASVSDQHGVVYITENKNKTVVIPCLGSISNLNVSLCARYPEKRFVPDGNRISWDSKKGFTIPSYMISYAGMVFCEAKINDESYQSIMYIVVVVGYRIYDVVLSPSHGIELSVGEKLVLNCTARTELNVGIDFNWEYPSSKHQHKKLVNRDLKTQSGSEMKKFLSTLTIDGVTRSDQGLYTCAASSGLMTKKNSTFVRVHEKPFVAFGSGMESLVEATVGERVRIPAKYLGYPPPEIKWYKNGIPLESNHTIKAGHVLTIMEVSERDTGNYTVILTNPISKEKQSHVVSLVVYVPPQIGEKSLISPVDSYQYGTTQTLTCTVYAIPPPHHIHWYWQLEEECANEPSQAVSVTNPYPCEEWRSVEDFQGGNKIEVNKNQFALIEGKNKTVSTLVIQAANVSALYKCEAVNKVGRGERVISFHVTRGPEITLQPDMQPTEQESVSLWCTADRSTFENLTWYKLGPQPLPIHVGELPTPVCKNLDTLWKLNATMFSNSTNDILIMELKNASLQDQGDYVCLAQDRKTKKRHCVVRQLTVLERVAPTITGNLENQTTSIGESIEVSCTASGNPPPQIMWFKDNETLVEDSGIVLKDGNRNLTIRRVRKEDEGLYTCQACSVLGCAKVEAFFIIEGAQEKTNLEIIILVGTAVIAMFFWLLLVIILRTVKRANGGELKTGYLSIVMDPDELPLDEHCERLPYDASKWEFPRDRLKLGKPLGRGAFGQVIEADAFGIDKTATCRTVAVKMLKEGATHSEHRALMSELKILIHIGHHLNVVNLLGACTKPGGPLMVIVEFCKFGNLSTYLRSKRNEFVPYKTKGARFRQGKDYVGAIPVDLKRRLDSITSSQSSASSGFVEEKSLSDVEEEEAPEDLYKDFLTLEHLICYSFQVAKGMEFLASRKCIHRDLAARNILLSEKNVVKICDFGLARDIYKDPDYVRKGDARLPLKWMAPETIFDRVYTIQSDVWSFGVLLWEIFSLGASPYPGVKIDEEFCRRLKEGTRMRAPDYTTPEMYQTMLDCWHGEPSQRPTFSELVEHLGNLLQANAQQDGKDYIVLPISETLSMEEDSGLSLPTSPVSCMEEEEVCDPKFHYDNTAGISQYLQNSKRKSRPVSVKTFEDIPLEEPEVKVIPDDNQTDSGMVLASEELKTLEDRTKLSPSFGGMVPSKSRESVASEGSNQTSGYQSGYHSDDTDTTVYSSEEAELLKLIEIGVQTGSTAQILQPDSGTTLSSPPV

EGFR [2] = target: T2, EGFR (Homo sapiens, UniProt P00533); set-up: 645–1186; His6 (N); made in house; host or cells: Sf-9 insect cells (baculovirus; pBlueBacHis2B and pFASTBacHTc vectors); details: cited from earlier work
T2 sequence (P00533 669-1210): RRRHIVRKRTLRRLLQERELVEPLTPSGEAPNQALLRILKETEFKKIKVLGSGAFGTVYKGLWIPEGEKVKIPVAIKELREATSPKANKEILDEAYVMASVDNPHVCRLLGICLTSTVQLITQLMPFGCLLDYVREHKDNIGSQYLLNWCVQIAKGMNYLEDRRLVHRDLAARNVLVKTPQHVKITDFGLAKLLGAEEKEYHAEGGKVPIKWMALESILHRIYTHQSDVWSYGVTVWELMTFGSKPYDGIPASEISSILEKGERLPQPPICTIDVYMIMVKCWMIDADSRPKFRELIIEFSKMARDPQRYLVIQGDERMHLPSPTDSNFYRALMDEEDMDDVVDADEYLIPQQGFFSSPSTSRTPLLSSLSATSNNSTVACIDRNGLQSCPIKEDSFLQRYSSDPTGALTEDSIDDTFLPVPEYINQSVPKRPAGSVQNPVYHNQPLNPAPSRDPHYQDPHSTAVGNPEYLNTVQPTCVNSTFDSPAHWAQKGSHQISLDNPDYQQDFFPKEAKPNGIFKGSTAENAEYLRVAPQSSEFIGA

[3] = Cell viability assay (MTT) on normal MCF-10A cells; assay type: cell-based; details: human, MCF-10A mammary gland epithelial cells (normal cell line), MCF-10A normal cells, four-day incubation
Description: The impact of novel compounds 10a–l on the viability of a normal human cell line, specifically human mammary gland epithelial cells (MCF-10A), was assessed to ascertain the safety of the newly synthesized compounds. The MTT test was employed to assess the cell viability of the novel compounds after a four-day incubation with MCF-10A cells.[29,37] Refer to Appendix A for more experimental details.
The effect of new compounds 10a–l on the viability of a normal human cell line, namely human mammary gland epithelial cells (MCF-10A), was evaluated to determine the safety of the newly synthesized compounds.
4.2. Biological evaluation
4.2.1 Cell Viability assay (MTT assay)
MTT assay was performed to investigate the effect of the synthesized compounds on mammary epithelial cells (MCF-10A). The cells were propagated in medium consisting of Ham's F-12 medium/ Dulbecco's modified Eagle's medium (DMEM) (1:1) supplemented with 10% foetal calf serum, 2 mM glutamine, insulin (10 μg/mL), hydrocortisone (500 ng/mL) and epidermal growth factor (20 ng/mL). Trypsin ethylenediamine tetra acetic acid (EDTA) was used to passage the cells after every 2-3 days. 96-well flat-bottomed cell culture plates were used to seed the cells at a density of 10^4 cells mL-1. The medium was aspirated from all the wells of culture plates after 24 h followed by the addition of synthesized compounds (in 200 μL medium to yield a final concentration of 0.1% (v/v) dimethyl sulfoxide) into individual wells of the plates. Four wells were designated to a single compound. The plates were allowed to incubate at 37°C for 96 h. Afterwards, the medium was aspirated and 3-[4,5-dimethylthiazol-2-yl]-2,5-diphenyltetrazolium bromide (MTT) (0.4 mg/mL) in medium was added to each well and subsequently incubated for 3 h. The medium was aspirated and 150 μL dimethyl sulfoxide (DMSO) was added to each well. The plates were vortexed followed by the measurement of absorbance at 540 nm on a microplate reader. […]

A-549 (lung cancer) = experiment: Antiproliferative assay, A-549; assay type: cell-based; details: Homo sapiens, A549; A-549 lung cancer cells; read-out: Antiproliferative activity IC50 ± SEM, A-549
Description: (§1) The dose–response experiments established the IC50 values for the new compounds. The given findings were obtained from at least two distinct studies, each comprising three repeats per concentration. Appendix A (SI File) provides experimental details.[38,39]
(§2) The MTT assay[43] was utilized to assess the antiproliferative effects of compounds 10a–l on four human cancer cell lines: HT-29 (colon cancer), Panc-1 (pancreatic cancer), A-549 (lung cancer), and MCF-7 (breast cancer). […]
(§3) 4.2.2. Assay for antiproliferative effect
(§4) To explore the antiproliferative potential of compounds propidium iodide fluorescence assay was performed using different cell lines such as Panc-1 (pancreas cancer cell line), MCF-7 (breast cancer cell line), HT-29 (colon cancer cell line) and A-549 (epithelial cancer cell line), respectively. To calculate the total nuclear DNA, a fluorescent dye (propidium iodide, PI) is used which can attach to the DNA, thus offering a quick and precise technique. PI cannot pass through the cell membrane and its signal intensity can be considered as directly proportional to quantity of cellular DNA. Cells whose cell membranes are damaged or have changed permeability are counted as dead ones. The assay was performed by seeding the cells of different cell lines at a density of 3000-7500 cells/well (in 200μl medium) in culture plates followed by incubation for 24h at 37 °C in humidified 5%CO2/95% air atmospheric conditions. The medium was removed; the compounds were added to the plates at 10 μM concentrations (in 0.1% DMSO) in triplicates, followed by incubation for 48h. DMSO (0.1%) was used as control. After incubation, medium was removed followed by the addition of PI (25 μl, 50μg/mL in water/medium) to each well of the plates. At - 80 °C, the plates were allowed to freeze for 24 h, followed by thawing at 25 °C. A fluorometer (Polar-Star BMG Tech) was used to record the readings at excitation and emission wavelengths of 530 and 620 nm for each well. The percentage cytotoxicity of compounds was calculated using […]
(§5) Where ATC= Absorbance of treated cells and AC= Absorbance of control. Erlotinib was used as positive control in the assay. […]

MCF-7 (breast cancer) = experiment: Antiproliferative assay, MCF-7; assay type: cell-based, human; details: Homo sapiens, MCF7; MCF-7 breast cancer cells; read-out: Antiproliferative activity IC50 ± SEM, MCF-7
Description: as §1, §2, §3, §4, §5

[4] = system: Panc-1 (pancreatic cancer); experiment: Antiproliferative assay, Panc-1; assay type: cell-based; details: Homo sapiens; Panc-1 pancreatic cancer cells; read-out: Antiproliferative activity IC50 ± SEM, Panc-1
Description: as §1, §2, §3, §4, §5

HT-29 (colon cancer) = experiment: Antiproliferative assay, HT-29; assay type: cell-based; details: Homo sapiens; HT-29 colon cancer cells; read-out: Antiproliferative activity IC50 ± SEM, HT-29
Description: as §1, §2, §3, §4, §5

[5] = system: four human cancer cell lines (A-549, MCF-7, Panc-1, HT-29); experiment: Antiproliferative assay, average over four cancer cell lines; assay type: cell-based; details: for GI50: average IC50 across A-549, MCF-7, Panc-1, HT-29
Description: The given findings were obtained from at least two distinct studies, each comprising three repeats per concentration. Appendix A (SI File) provides experimental details.[38,39] […]
as §3
To explore the antiproliferative potential of compounds propidium iodide fluorescence assay was performed using different cell lines such as Panc-1 (pancreas cancer cell line), MCF-7 (breast […]
respectively. To calculate the total nuclear DNA, a fluorescent dye (propidium iodide, PI) is used which can attach to the DNA, thus offering a quick and precise technique. PI cannot pass through the cell membrane and its signal intensity can be considered as directly proportional to quantity of cellular DNA. Cells whose cell membranes are damaged or have changed permeability are counted as dead ones. The assay was performed by seeding the cells of different cell lines at a density of 3000-7500 cells/well (in 200μl medium) in culture plates followed by incubation for 24h at 37 °C […]
The medium was removed; the compounds were added to the plates at 10 μM concentrations (in 0.1% DMSO) in triplicates, followed by incubation for 48h. DMSO (0.1%) was used as control. After incubation, medium was removed followed by the addition of PI (25 μl, 50μg/mL in water/medium) to each well of the plates. At - 80 °C, the plates were allowed to freeze for 24 h, followed by thawing at 25 °C. A fluorometer (Polar-Star BMG Tech) was used to record the readings at excitation and emission wavelengths of 530 and 620 nm for each well. The percentage cytotoxicity of compounds was calculated using […]
Where ATC= Absorbance of treated cells and AC= Absorbance of control. […]
positive control in the assay. […]

VEGFR-2 [6] = target: T1, VEGFR-2; experiment: VEGFR-2 inhibitory assay
Description: The majority of signals detected by antiphosphotyrosine antibody were from EGFR because the enzyme preparation contained low impurities.
Prepare all the solutions using autoclaved, deionized water and analytical grade reagents. Prepare
and store all the reagents at room temperature (unless indicated otherwise). EDTA solution (0.5
M, pH 8.0): add 95 mL ultra-pure water to 14.612 g EDTA, adjust the pH to 8.0 using NaOH
solution, add 5 mL ultra-pure water; 1×Kinase Assay Buffer: add 25 mL HEPES solution (1 M),
water, adjust pH to 7.5 and constant volume to 500 mL using ultrapure water; 4×Stop solution (40
mM): Mix 0.8 mL of the foregoing EDTA solution, 1 mL 10×Detection Buffer and 8.2 mL ultra-
pure water; 1×Detection Buffer: Mix 1 mL 10×Detection Buffer with 9 mL water; 4×VEGFR
μM) was added to 624 μL 1×Kinase Assay Buffer and mixed; 4×ULight™-labeled JAK1
concentration 5 μM) was added to 576 μL 1×Kinase Assay Buffer and mixed; 4×ATP Solution
2×substrate/ATP Mix: 560 μL foregoing 4×ULight™-labeled JAK1 and 560 μL 4×ATP solution
and mixed (prepared before use). The assays used an ULight-labeled peptide substrate and a
Europium-W1024-labeled antiphosphotyrosine antibody. The VEGFR-2 was purchased from
Carna Biosciences, Inc. (New York, USA). The 384-well plates were obtained from PerkinElmer.
Compounds were dissolved in DMSO and diluted to 11 concentrations at a tripling rate from 2.500
5 μL 2×VEGFR-2 kinase solution (0.5 nM)
was added to 384-well plates homogeneous mixing and pre-reaction at room temperature for 30
min. Next, 2.5 μL 4×Ultra ULightTM-JAK-1(Tyr1023) Peptide (200 nM)/ATP (40 μM) was
added to the corresponding wells of a 384-well plate. Negative control: 2.5 μL/well 4×substrate/ATP mixture and 7.5 μL 1×kinase assay buffer in 384-well plate well. Positive control:
μL/well 2×VEGFR-2 kinase solution was added to the 384-well plate, The final concentration of DMSO in the mixing system was 4%. After incubation at room temperature and dark for 60 min, 5 μL 4×stop solution was added to corresponding wells to react for 5 min and then 5 μL 4×detection mix was added to the corresponding wells of a 384-well plate. The mixture was centrifugally mixed and stayed for 60 min at room temperature for color development. The plate
was read using an Envision plate reader. The inhibition rate (%) = (positive well reading-
compound well reading)/(positive well reading-negative well reading)×100. The corresponding IC50 values were calculated using GraphPad Prism 5.0.

EGFR [7] = target: T2, EGFR; experiment: EGFR inhibitory assay (EGFR-TK test)
Description: Baculoviral expression vectors including pBlueBacHis2B and pFASTBacHTc were used
5ʹ upstream to the EGFR sequence comprised a sequence that encoded (His)6. Sf-9 cells were infected for 72h for protein expression. The pellets of Sf-9 cells were solubilized in a buffer containing sodium vanadate (100 μM), aprotinin (10 μg/mL), triton (1%), HEPES
buffer(50mM), ammonium molybdate (10 μM), benzamidine HCl (16 μg/mL), NaCl (10 mM),leupeptin (10 μg/mL) and pepstatin (10 μg/mL) at 0°C for 20 min at pH 7.4, followed by centrifugation for 20 min. To eliminate the nonspecifically bound material, a Ni-NTA super flow packed column was used to pass through and wash the crude extract supernatant first with 10mM and then with 100 mM imidazole. Histidine-linked proteins were first eluted with 250 and then with 500 mM imidazole subsequent to dialysis against NaCl (50 mM), HEPES (20 mM), glycerol (10%) and 1 μg/mL each of aprotinin, leupeptin and pepstatin for 120 min. The purification was performed either at 4 °C or on ice. To record autophosphorylation level, EGFR kinase assay was carried out on the basis of DELFIA/Time-Resolved Fluorometry. The compounds were first
dissolved in DMSO absolute, subsequent to dilution to appropriate concentration using HEPES
(25 mM) at pH 7.4. Each compound (10 μL) was incubated with recombinant enzyme (10 μL, 5
ng for EGFR, 1:80 dilution in 100 mM HEPES) for 10 min at 25 °C, subsequent to the addition of
5X buffer (10 μL, containing 2 mM MnCl2, 100 μM Na3VO4, 20 mM HEPES and 1 mM DTT)
and ATP-MgCl2 (20 μL, containing 0.1 mM ATP and 50 mM MgCl2) and incubation for 1h. The
negative and positive controls were included in each plate by the incubation of enzyme either with
or without ATP-MgCl2. The liquid was removed after incubation and the plates were washed
thrice using a wash buffer. The Europium-tagged antiphosphotyrosine antibody (75 μL, 400 ng)
was added to each well followed by incubation of 1h and then washing of the plates using buffer.
The enhancement solution was added to each well and the signal was recorded at excitation and
The autophosphorylation percentage inhibition by compounds was calculated using the following equation:
calculated. The majority of signals detected by antiphosphotyrosine antibody were from EGFR because the enzyme preparation contained low impurities.

Row | IC50 (A-549 (lung cancer)) | IC50 (MCF-7 (breast cancer)) | IC50 [4] | IC50 (HT-29 (colon cancer)) | GI50 ([5]; Homo sapiens) | IC50 (VEGFR-2 [6]) | IC50 (EGFR [7]) | Compound | viability at 96 h, 50 µM [3] | also measured
1 | – | – | – | – | – | – | – | O=c1c2ccccc2nc(SCc2nc(-c3ccc(Cl)cc3)no2)n1-c1ccccc1 [Compound IV] | – | IC50 (BRAF^V600E): 48 nM; Efficacy against mutant EGFR (EGFR^T790M) (mutant EGFR (EGFR^T790M)): considerable efficacy
2 | – | – | – | – | – | – | – | COc1cc(-c2noc(Cn3cc(-c4ccccc4)nn3)n2)cc(OC)c1OC [Compound III] | – | IC50 (VEGFR-2 [1]; read-out: VEGFR-2 IC50): 2.4 nM; IC50 (EGFR [2]): 76 nM
3 | 30 ± 2 nM | 25 ± 1 nM | 28 ± 1 nM | 30 ± 2 nM | 28 nM | 32 ± 2 nM | 65 ± 4 nM | N#Cc1c(-c2ccncc2)nc(SCc2nc(-c3ccc(Cl)cc3)no2)[nH]c1=O [Compound 10e, 2-(((3-(4-Chlorophenyl)-1,2,4-oxadiazol-5-yl)methyl)thio)-6-oxo-4-(pyridin-4-yl)-1,6-dihydropyrimidine-5-carbonitrile] | 90% | Reduction in antiproliferative potency relative to 10k (GI50) ([5]; less potent than 10k): 1.3 fold
4 | – | – | – | – | – | – | – | COc1ccc(-c2csc(NC(=O)CSc3nc(-c4ccc(OC)cc4)c(C#N)c(=O)[nH]3)n2)cc1 [Compound I] | – | IC50 (EGFR [2]; in vitro EGFR inhibitory assay): 190 ± 200 nM
5 | 33 ± 2 nM | 28 ± 1 nM | 30 ± 1 nM | 34 ± 1 nM | 34 nM | 39 ± 2 nM | 71 ± 5 nM | COc1ccc(-c2noc(CSc3nc(-c4ccc(Cl)cc4)c(C#N)c(=O)[nH]3)n2)cc1 [Compound 10i, 2-(((3-(4-Methoxyphenyl)-1,2,4-oxadiazol-5-yl)methyl)thio)-4-(4-chlorophenyl)-6-oxo-1,6-dihydropyrimidine-5-carbonitrile] | 91% | GI50 [5]: 31 nM
6 | – | – | – | – | – | – | – | CC(=O)c1ccc(NC(=O)CSC2=NC(=O)C(C#N)C(c3ccccc3)N2)cc1 (stereo not drawn) [Compound II] | – | IC50 (VEGFR-2 [1]; read-out: VEGFR-2 kinase IC50): 199 nM
